{"source": "patent US11365227B2", "about": "“Peptide and pharmaceutical compositions of same for use as an antimicrobial and in cancer treatment” (UNIVERSITAT DE VALÈNCIA, priority 2017, dated 2022)", "key": {"S. aureus": {"system": "S. aureus", "assay": "Transmission electron microscopy of S. aureus cells treated with peptides", "assay_type": "cell-based, Staphylococcus aureus subsp. aureus CECT 4013", "conditions": "25 μg/mL, 1 h", "protocol": "The samples were prepared in the same way as for scanning electron microscopy, except for the series of graded dehydration with ethanol, in which only the 90° grade was reached. Then the samples were included in resin in 4 steps: ethanol 96°—resin LR-White 2:1 (20 h), ethanol 100°—resin 2:1 (20 h), ethanol 100°—resin 1:2 (20 h) and 100% resin (24 h at 60° C.). After the samples were included in the resin the block was prepared for ultrathin cuts of 60 nm in the equipment Leica UC6 Ultracut Microtome.\nTransmission electron microscopy provides high-resolution images which were used to view the ultrastructural damage caused by the peptides inside the bacteria. The cells of S. aureus CECT 4013 were treated with the peptides hBD-3, TcDef3-pep and PaSK at a concentration of 25 μg/mL, for 1 h, and analysed using transmission electron microscopy (FIG. 6). In cells without treatment, an intact cytoplasm membrane (3) and peptidoglycane wall (2) were observed, typical of a Gram+ bacteria as S. aureus, as well as a division septum (1) without malformations, while in treated cells different types of alterations were observed. […] Small size circular structures (9) are observed. These structures show a different electrodensity from cells and lack a cytoplasm membrane and peptidoglycane wall. The biofilm formed by the cells treated with peptides was also observed in the images obtained by transmission electron microscopy (FIG. 7) and it was not observed in the cells treated with human defensin hBD-3 (FIG. 6)."}, "MDA-MB-231 tumour cells [1]": {"system": "MDA-MB-231 tumour cells", "assay": "Scanning and transmission electron microscopy of tumour cells", "assay_type": "cell-based, human", "conditions": "100 μg/mL, 72 h", "protocol": "The MDA-MB-231 cells, control or treated with 100 μg/mL of PaSK, were prepared as indicated in the section “Preparation of the samples”. The cells were fixed with Karnosky (2.5% paraformaldehyde and 0.5% glutaraldehyde) for 2 h at 4° C. After washing (centrifuging and eliminating the supernatant) they were fixed with 2% osmium tetraoxide for another 2 h, washed again and filtered with a 0.2 μm filter. The cells were then dehydrated in graded ethanol series (30°, 50°, 70°, 90°, 100°) for 10 min in each gradation. To carry out the critical point drying, the ethanol was replaced with liquid CO2, the temperature was increased to accelerate evaporation and the pressure was lowered slowly to conserve the exact shape of the cells. Finally, shading with gold palladium was performed for 2 min observing the results in the equipment FEG-SEM HITACHI S4800 at 10 Kv. […]\nBoth scanning electron microscopy and transmission electron microscopy provide high resolution images, which were used to view the morphological and ultrastructural changes caused by the peptide PaSK in the membrane and inside of tumour cells. The MDA-MB-231 cells were treated with the peptide PaSK at a concentration of 100 μg/mL for 72 h, and were analysed using scanning electron microscopy (FIG. 14) and transmission electron microscopy (FIG. 15). […]"}, "MDA-MB-231 tumour cells [2]": {"system": "MDA-MB-231 tumour cells", "assay": "Cell cycle analysis by flow cytometry (CycleTEST PLUS, ModFit LT)", "assay_type": "cell-based, human", "conditions": "100 μg/mL, 72 h", "protocol": "The MDA-MB-231 cells were cultured in dishes with 6 wells with a density of 5×10^4 cells per well, in which 200 μL or 400 μL of PaSK were added (final concentrations 100 μg/mL and 200 μg/mL) or the same volume of the medium (solvent used to dilute the peptide) in the corresponding controls. The cells were incubated at 37° C. for 72 h.\nFor the cell line analysis, the CycleTEST™ PLUS DNA Reagent Kit (Sigma-Aldrich) was used. Two washes were carried out using citrate buffer (containing sodium citrate, saccharose and dimethyl sulphoxide (DMSO)), centrifuging the samples in each one at 300×g for 5 min, and one final wash was performed in which the number of cells was adjusted to 5×10^5 and centrifuged at 400×g for 5 min, and then adding 250 μL of solution A (containing trypsin in a detergent buffer with spermine tetrahydrochloride), 200 μL of solution B (containing an inhibitor of trypsin and ribonuclease A, in a stabilising buffer of citrate with spermine tetrahydrochloride) and 200 μL of solution C (includes PI and the stabilising buffer with spermine tetrahydrochloride), leaving between the addition of each solution an interval of 10 min at room temperature and performing the last one, before filtering, in a cold chamber and in the dark. The analyses of cell death produced by the peptide and of the stage of cell cycle of the cells were performed with the equipment BD Facs Verse (Becton Dickinson). The cell cycle modelling was performed with the software Modfit LT, version 3.3.11. The experiments were performed in duplicate.\nIn this example, the cytotoxic and antiproliferative activity of the peptide PaSK is assessed by flow cytometry, performing an analysis of cell viability and an analysis of the cell cycle. After treatment of the tumour cells MDA-MB-231 with 200 μg/mL (cell viability experiments) and 100 μg/mL (analysis of cell cycle) of PaSK the percentage of viable cells was determined, as well as the stage of the cell cycle in which proliferation was stopped."}}, "note": "Where a SMILES comes first, the peptide text is derived from it."}
{"compound": "CC[C@H](C)[C@H](NC(=O)[C@H](CCCNC(=N)N)NC(=O)[C@H](CCCNC(=N)N)NC(=O)[C@H](CCCCN)NC(=O)[C@H](CC(N)=O)NC(=O)[C@H](CS)NC(=O)[C@H](Cc1ccc(O)cc1)NC(=O)CNC(=O)CNC(=O)[C@H](CCCNC(=N)N)NC(=O)[C@H](CCCCN)NC(=O)[C@H](CCCNC(=N)N)NC(=O)[C@H](CCCCN)NC(=O)[C@H](CC(C)C)NC(=O)[C@H](CC(C)C)NC(=O)[C@H](CS)NC(=O)[C@H](Cc1c[nH]cn1)NC(=O)[C@H](C)NC(=O)[C@H](C)NC(=O)[C@H](CS)NC(=O)[C@H](C)NC(=O)[C@H](C)NC(=O)[C@H](Cc1c[nH]cn1)NC(=O)[C@H](CC(N)=O)NC(=O)[C@@H](NC(=O)[C@@H](N)CCCCN)C(C)C)C(=O)N[C@@H](CS)C(=O)N[C@H](C(=O)N[C@@H](CS)C(=O)N[C@@H](CCCNC(=N)N)C(=O)N[C@@H](CC(N)=O)C(=O)O)C(C)C", "note": "[PaSK] (H-KVNHAACAAHCLLKRKRGGYCNKRRICVCRN-OH; N-terminus and C-terminus assumed)", "values": [{"measurement": "ultrastructural damage, transmission electron microscopy", "setting": "S. aureus", "value": "detachments, malformations and thinning of the membrane"}, {"measurement": "morphological and ultrastructural changes", "setting": "MDA-MB-231 tumour cells [1]", "value": "significant morphological changes"}, {"measurement": "percentage of cells in stage G1", "setting": "MDA-MB-231 tumour cells [2]", "value": 57.9, "unit": "%"}, {"measurement": "percentage of cells in stage G2", "setting": "MDA-MB-231 tumour cells [2]", "value": 9.0, "unit": "%"}, {"measurement": "percentage of cells in stage S", "setting": "MDA-MB-231 tumour cells [2]", "value": 33.2, "unit": "%"}]}
